Experimental data reported in paper PMC4505863 (ACS Chemical Neuroscience, 2014).

How the values were obtained:
5-HT2A receptor [1] = molecular target: T1, 5-HT2A receptor (Homo sapiens, UniProt P28223); details: receptor not given; cited from earlier work
rat stomach fundus = details: cited from earlier work
[2] = tested on: isolated guinea pig uterus; details: cited from earlier work
[3] = tested on: isolated guinea pig taenia cecum; details: cited from earlier work
[4] = tested on: 5-HT2 type receptors in rabbit aorta; details: cited from earlier work
[5] = tested on: 5-HT2 type receptors in rat jugular vein; details: cited from earlier work
5-HT2A receptor [6] = molecular target: T1, 5-HT2A receptor; assay: h5-HT2A affinity, antagonist radioligand [3H]ketanserin; assay type: binding
5-HT2A receptor [7] = molecular target: T1, 5-HT2A receptor; assay: h5-HT2A affinity, agonist radioligand [125I]DOI; assay type: binding
human 5-HT2C receptor [8] = molecular target: T2, human 5-HT2C receptor (Homo sapiens, UniProt P28335); assay: h5-HT2C affinity, antagonist radioligand [3H]mesulergine; assay type: binding
T2 sequence (P28335 33-458): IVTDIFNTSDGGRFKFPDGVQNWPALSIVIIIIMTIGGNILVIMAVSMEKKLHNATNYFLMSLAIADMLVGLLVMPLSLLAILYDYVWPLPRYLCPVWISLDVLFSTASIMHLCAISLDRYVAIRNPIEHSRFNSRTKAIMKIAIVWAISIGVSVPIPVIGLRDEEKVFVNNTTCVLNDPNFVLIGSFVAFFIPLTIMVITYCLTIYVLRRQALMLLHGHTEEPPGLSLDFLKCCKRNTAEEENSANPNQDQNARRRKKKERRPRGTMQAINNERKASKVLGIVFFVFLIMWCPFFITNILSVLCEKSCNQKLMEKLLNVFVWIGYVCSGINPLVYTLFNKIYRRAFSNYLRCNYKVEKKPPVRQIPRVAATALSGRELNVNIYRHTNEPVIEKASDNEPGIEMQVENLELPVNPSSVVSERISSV

human 5-HT2C receptor [9] = molecular target: T2, human 5-HT2C receptor; assay: h5-HT2C affinity, agonist radioligand [125I]DOI; assay type: binding
5-HT2B = 5-HT2B (Homo sapiens, UniProt P41595); assay: PDSP screening affinity 5-HT2B; assay type: binding; details: 5-HT2B pKi ± SEM
5-HT1A = molecular target: T3, 5-HT1A (Homo sapiens, UniProt P08908); assay: PDSP screening affinity 5-HT1A; assay type: binding; details: 5-HT1A affinity
T3 sequence (P08908 1-422): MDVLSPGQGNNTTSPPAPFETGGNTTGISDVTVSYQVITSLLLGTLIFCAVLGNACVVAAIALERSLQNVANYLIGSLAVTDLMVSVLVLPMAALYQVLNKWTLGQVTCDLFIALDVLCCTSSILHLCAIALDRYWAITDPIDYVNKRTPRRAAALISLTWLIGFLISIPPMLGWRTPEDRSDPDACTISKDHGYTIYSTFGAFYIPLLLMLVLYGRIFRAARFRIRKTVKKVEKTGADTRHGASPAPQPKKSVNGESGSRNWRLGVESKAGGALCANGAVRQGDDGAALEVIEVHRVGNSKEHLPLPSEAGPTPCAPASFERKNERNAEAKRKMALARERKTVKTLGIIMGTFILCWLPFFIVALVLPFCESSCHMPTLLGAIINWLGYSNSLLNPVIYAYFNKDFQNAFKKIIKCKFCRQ

5-HT1B = 5-HT1B (Homo sapiens, UniProt P28222); assay: PDSP screening affinity 5-HT1B; assay type: binding; details: 5-HT1B affinity
5-HT1D = 5-HT1D (Homo sapiens, UniProt P28221); assay: PDSP screening affinity 5-HT1D; assay type: binding
5-ht1e = 5-ht1e (Homo sapiens, UniProt P28566); assay: PDSP screening affinity 5-ht1e; assay type: binding
5-HT3 = molecular target: T4, 5-HT3 (Homo sapiens, UniProt P46098); assay: PDSP screening affinity 5-HT3; assay type: binding
T4 sequence (P46098 24-478): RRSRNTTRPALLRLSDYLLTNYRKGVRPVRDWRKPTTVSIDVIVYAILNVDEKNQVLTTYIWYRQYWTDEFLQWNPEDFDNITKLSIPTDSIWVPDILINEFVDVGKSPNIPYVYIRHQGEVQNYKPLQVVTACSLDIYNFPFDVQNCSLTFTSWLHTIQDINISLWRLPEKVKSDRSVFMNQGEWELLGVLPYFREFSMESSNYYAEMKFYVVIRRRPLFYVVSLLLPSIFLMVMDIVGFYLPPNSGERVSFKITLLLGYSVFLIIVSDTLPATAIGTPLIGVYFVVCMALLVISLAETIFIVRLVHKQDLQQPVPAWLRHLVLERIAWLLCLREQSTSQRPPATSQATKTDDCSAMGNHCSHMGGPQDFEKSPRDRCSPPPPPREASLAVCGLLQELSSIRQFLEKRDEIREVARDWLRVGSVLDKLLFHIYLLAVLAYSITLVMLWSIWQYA

5-ht5a = 5-ht5a (Homo sapiens, UniProt P47898); assay: PDSP screening affinity 5-ht5a; assay type: binding; details: 5-ht5a affinity
5-HT6 = 5-HT6 (Homo sapiens, UniProt P50406); assay: PDSP screening affinity 5-HT6; assay type: binding; details: 5-HT6 affinity
5-HT7 = 5-HT7 (Homo sapiens, UniProt P34969); assay: PDSP screening affinity 5-HT7; assay type: binding; details: 5-HT7 affinity
r5-HT2A = r5-HT2A (Rattus norvegicus, UniProt P14842); assay: Ca2+ mobilization assay; assay type: cell-based
h5-HT2A = h5-HT2A (Homo sapiens, UniProt P28223); assay: Ca2+ mobilization assay; assay type: cell-based
h5-HT2B = h5-HT2B (Homo sapiens, UniProt P41595); assay: Ca2+ mobilization assay; assay type: cell-based
r5-HT2C = molecular target: T5, r5-HT2C (Rattus norvegicus, UniProt P08909); assay: Ca2+ mobilization assay; assay type: cell-based
T5 sequence (P08909 33-460): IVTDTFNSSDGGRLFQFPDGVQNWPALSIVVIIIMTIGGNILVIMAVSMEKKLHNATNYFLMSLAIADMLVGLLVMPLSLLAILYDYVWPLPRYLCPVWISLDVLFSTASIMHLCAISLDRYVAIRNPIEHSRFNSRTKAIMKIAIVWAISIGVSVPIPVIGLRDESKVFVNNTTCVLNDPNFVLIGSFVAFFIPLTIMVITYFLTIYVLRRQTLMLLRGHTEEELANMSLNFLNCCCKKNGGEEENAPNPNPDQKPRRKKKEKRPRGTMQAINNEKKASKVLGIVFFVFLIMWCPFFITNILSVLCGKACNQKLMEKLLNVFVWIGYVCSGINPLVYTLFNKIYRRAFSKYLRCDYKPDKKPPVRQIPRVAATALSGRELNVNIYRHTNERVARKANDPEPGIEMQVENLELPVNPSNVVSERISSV

h5-HT2C = molecular target: T6, h5-HT2C (Homo sapiens, UniProt P28335); assay: Ca2+ mobilization assay; assay type: cell-based
T6 sequence (P28335 33-458): T2 sequence (P28335 33-458)

Male C57BL/6J mice = details: cited from earlier work
rat tail artery = details: cited from earlier work

T1 sequence (P28223 whole entry): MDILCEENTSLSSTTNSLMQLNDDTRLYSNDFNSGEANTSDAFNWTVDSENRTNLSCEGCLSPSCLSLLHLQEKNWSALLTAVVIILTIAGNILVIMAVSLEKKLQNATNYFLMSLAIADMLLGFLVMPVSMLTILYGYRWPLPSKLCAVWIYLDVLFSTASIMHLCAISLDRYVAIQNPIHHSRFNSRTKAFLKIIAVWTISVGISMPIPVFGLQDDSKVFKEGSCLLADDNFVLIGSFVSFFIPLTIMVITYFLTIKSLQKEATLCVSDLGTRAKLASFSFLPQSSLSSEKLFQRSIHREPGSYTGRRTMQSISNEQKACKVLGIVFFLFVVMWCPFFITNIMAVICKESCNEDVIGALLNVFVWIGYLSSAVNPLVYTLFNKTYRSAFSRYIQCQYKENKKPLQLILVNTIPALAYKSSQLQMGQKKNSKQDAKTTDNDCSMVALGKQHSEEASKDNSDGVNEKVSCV
Chain of h5-HT2B (P41595 whole entry): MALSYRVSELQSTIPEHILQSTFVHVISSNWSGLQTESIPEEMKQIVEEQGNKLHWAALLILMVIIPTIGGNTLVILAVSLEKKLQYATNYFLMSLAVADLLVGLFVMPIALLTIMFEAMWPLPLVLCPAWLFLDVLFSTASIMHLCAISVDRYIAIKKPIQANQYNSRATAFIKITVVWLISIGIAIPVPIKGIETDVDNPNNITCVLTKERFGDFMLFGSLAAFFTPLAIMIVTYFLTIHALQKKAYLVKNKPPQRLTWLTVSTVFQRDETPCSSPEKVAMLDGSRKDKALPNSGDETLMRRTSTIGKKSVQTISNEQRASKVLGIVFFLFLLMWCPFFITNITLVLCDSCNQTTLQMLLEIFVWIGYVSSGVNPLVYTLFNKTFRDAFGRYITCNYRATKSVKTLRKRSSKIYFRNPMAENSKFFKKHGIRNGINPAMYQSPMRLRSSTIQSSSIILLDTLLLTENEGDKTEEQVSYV
Chain of h5-HT2A (P28223 whole entry): as the sequence (P28223 whole entry) above
Chain of r5-HT2A (P14842 whole entry): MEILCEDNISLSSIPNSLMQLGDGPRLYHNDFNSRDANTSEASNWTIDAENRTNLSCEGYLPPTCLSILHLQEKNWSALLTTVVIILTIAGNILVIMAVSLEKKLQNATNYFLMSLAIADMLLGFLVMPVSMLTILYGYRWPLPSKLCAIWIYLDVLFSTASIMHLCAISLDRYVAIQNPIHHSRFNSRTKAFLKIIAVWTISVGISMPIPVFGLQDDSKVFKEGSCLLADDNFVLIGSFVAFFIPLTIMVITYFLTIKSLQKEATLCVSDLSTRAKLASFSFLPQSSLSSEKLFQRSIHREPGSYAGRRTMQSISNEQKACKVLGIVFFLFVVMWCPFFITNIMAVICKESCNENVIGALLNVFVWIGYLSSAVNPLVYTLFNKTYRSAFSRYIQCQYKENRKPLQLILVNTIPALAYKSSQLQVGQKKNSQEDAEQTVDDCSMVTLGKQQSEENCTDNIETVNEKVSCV
Chain of 5-HT7 (P34969 whole entry): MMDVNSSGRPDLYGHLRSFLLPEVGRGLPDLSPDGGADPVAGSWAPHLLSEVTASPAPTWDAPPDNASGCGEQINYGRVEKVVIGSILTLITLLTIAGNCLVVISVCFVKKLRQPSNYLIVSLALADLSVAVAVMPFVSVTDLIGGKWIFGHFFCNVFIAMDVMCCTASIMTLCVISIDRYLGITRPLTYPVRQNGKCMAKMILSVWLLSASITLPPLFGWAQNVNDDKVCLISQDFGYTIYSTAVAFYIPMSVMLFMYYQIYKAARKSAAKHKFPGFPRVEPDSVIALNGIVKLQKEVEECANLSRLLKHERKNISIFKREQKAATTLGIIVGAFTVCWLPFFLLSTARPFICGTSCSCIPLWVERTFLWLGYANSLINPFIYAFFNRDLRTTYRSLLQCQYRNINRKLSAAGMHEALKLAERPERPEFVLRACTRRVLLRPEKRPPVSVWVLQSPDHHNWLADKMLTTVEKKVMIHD
Chain of 5-HT2B (P41595 whole entry): as the sequence (P41595 whole entry) above
Chain of 5-HT6 (P50406 whole entry): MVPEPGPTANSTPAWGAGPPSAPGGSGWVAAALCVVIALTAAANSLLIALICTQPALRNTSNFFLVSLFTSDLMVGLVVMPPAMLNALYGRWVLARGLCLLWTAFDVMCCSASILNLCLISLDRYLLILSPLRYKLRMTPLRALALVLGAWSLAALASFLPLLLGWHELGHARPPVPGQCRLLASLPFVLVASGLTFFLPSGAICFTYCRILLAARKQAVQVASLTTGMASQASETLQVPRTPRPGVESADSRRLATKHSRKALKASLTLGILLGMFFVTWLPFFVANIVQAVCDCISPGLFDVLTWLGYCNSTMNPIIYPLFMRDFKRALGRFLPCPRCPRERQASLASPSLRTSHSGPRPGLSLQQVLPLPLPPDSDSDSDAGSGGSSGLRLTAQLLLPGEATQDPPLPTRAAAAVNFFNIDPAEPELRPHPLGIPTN
Chain of 5-HT1B (P28222 whole entry): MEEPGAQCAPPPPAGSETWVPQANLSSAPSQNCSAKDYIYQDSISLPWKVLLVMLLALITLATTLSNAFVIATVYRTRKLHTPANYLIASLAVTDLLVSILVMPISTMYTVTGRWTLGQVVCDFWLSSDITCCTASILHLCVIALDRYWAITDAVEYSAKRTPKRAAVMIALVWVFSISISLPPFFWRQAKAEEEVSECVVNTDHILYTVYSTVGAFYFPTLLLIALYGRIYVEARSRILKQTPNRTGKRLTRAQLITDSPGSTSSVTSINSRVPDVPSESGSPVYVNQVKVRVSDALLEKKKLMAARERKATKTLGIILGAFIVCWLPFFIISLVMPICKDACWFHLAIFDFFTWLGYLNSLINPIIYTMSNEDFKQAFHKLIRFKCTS
Chain of 5-ht5a (P47898 whole entry): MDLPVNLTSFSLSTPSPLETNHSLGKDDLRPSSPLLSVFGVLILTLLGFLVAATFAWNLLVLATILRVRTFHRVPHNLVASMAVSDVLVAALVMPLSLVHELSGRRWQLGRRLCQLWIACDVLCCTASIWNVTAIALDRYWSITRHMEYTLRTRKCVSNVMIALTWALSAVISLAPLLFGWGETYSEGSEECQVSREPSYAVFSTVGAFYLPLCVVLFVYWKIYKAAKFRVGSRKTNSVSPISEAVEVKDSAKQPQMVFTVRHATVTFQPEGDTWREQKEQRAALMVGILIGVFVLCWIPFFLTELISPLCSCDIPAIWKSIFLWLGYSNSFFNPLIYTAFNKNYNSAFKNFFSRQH
Chain of 5-HT1D (P28221 whole entry): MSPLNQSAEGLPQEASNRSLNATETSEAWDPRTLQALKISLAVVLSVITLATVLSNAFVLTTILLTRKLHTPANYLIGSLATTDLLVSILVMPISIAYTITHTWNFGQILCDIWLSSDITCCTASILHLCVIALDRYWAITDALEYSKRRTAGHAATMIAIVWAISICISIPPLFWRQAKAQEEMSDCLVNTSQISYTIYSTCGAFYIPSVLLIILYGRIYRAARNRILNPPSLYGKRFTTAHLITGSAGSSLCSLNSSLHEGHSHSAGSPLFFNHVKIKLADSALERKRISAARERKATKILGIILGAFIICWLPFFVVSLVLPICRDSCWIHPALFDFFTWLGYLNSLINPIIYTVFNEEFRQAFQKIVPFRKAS
Chain of 5-ht1e (P28566 whole entry): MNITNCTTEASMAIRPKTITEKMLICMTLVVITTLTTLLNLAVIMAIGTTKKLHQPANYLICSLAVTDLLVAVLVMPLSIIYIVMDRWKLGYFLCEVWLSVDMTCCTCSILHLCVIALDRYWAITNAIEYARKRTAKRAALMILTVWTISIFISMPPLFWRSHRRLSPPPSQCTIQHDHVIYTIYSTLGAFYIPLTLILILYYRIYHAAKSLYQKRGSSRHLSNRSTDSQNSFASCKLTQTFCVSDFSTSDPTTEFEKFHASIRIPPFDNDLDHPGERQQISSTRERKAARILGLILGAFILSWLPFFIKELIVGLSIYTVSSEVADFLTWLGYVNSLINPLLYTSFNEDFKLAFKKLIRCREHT

COc1ccc2[nH]cc(CCNCc3ccccc3)c2c1 [N-benzyl-5-methoxytryptamine]
affinity relative to the parent primary amine (5-HT2A receptor [1]): essentially no effect on affinity
effect on serotonin-induced contraction (rat stomach fundus): antagonist
effect on serotonin-induced contraction [2]: antagonist
effect on serotonin-induced contraction [3]: antagonist
agonist activity at 5-HT2 type receptors [4]: weak partial agonist activity
agonist activity at 5-HT2 type receptors [5]: weak partial agonist activity

COc1cc(CCNCc2ccccc2OC)c(OC)cc1I [Compound 1, N-(2-Methoxybenzyl)-2-(4-iodo-2,5-dimethoxyphenyl)ethan-1-amine]
Ki (5-HT2A receptor [6]): 0.00052 µM
Ki (5-HT2A receptor [7]): 0.000158 µM
h5-HT2A Ki (5-HT2A receptor [7]; [125I]DOI): subnanomolar affinity
Ki (human 5-HT2C receptor [8]): 0.00069 µM
Ki (human 5-HT2C receptor [9]): 0.0005 µM
h5-HT2C Ki (human 5-HT2C receptor [9]; [125I]DOI): subnanomolar affinity
Ki (5-HT2B): 0.00138 µM
Ki (5-HT1A): 1.03 µM
Ki (5-HT1B): 5.89 µM
Ki (5-HT1D): 0.533 µM
Ki (5-ht1e): > 10 µM
Ki (5-HT3): > 10 µM
Ki (5-ht5a): 2.79 µM
Ki (5-HT6): 0.032 µM
Ki (5-HT7): 1.54 µM
r5-HT2A Emax (r5-HT2A; percentage of the maximum response to 5-HT): 79.4 ± 1.1%
EC50 (r5-HT2A; r5-HT2A EC50, Ca2+ mobilization): 0.011 µM
EC50 (h5-HT2A): 0.0042 µM
Emax (h5-HT2A; HEK293, read-out: h5-HT2A Emax, percentage of the maximum response to 5-HT): 86.4 ± 1.4%
Emax (h5-HT2B; HEK293, read-out: h5-HT2B Emax): 65 ± 2%
EC50 (h5-HT2B; h5-HT2B pEC50 ± SEM, Ca2+ mobilization, NA = not active, Emax ≤ 15%): 0.0155 µM
EC50 (r5-HT2C; r5-HT2C EC50, Ca2+ mobilization): 0.095 µM
Emax (r5-HT2C; read-out: r5-HT2C Emax): 104 ± 2%
Emax (h5-HT2C; HEK293, read-out: h5HT2C Emax): 92%
EC50 (h5-HT2C; h5HT2C EC50, Ca2+ mobilization): 0.0417 µM
max counts (Male C57BL/6J mice; HTR counts): 102.6
activity in the HTR assay (active / inactive) (Male C57BL/6J mice): active
magnitude of peak effect × vehicle (Male C57BL/6J mice; mouse head twitch): 16.0 × vehicle
maximally effective dose (Male C57BL/6J mice; mouse head twitch): 1 mg/kg
ED50 mg/kg (95% CI), mouse head twitch (Male C57BL/6J mice; test duration 30 min, ref 31 (Halberstadt and Geyer)): 0.078 (0.055–0.111) mg/kg
pEC50, rat tail artery (rat tail artery; agonist potency): 10.09
Emax, rat tail artery (rat tail artery): 30%
